Measured values taken from US20150366252A1, “SWEETENER ENHANCERS AND METHODS FOR USING THE SAME” (International Flavors & Fragrances Inc., priority 2014, published 2015).

Test system: human panelists (sweet taste of glucose)
Assay: Glucose enhancement test: paired-comparison human panelist taste test
Type: in vivo
Settings: for glucose concentration perceived by panelists as equally sweet (as sweet as): composition of 7% glucose + 8 ppm compound; for glucose enhancement effects (overall statement): human panelist taste test, 7% glucose + 8 ppm compound
Description: Compounds 1-3 were tested for glucose sweetness enhancement by human panelist taste tests. Test samples containing the compound of interest were tasted in pairs by the panelist to determine which of the samples were sweeter. Binominal distribution for two-sided pair comparisons were used to determine the probability of the correct number of responses at α=0.05 (95% confidence level).

[1] = 7% glucose + 8 ppm compound vs 8.5% glucose
[2] = 7% glucose + 8 ppm compound vs 8.5% glucose, 12 panelists × 2 reps

NC1=NS(=O)(=O)Nc2cccc(OCC3(C(=O)NC4CCCC4)CCCNC3=O)c21 (stereo not shown) [Compound 1, 3-(((4-Amino-2,2-dioxido-1H-benzo[c][1,2,6]thiadiazin-5-yl)oxy)methyl)-N-cyclopentyl-2-oxopiperidine-3-carboxamide]
sweetness perceived by panelists relative to 8.5% glucose [1]: significantly sweeter | Total (sample selected as sweeter by panelists) (7% glucose + 8 ppm compound vs 9.5% glucose, paired comparison): 17 | Total (sample selected as sweeter by panelists) (7% glucose + 8 ppm compound vs 10% glucose, paired comparison): 11 | Total (sample selected as sweeter by panelists) (7% glucose + 8 ppm compound vs 10.5% glucose, paired comparison): 6 | glucose concentration perceived by panelists as equally sweet (as sweet as): 10 % glucose

CC(C)NC(=O)C1(COc2cccc3c2C(N)=NS(=O)(=O)N3)CCCNC1=O (stereo not shown) [Compound 2, 3-(((4-amino-2,2-dioxido-1H-benzo-[c][1,2,6]thiadiazin-5-yl)oxy)methyl)-N-isopropyl-2-oxopiperidine-3-carboxamide]
sweetness perceived by panelists relative to 8.5% glucose [1]: significantly sweeter | Total (sample selected as sweeter by panelists) [2]: 23

NC1=NS(=O)(=O)Nc2cccc(OCC3(C(=O)NC4CCCCC4)CCCNC3=O)c21 (stereo not shown) [Compound 3, 3-(((4-amino-2,2-dioxido-1H-benzo[c][1,2,6]thiadiazin-5-yl)oxy)methyl)-N-cyclohexyl-2-oxopiperidine-3-carboxamide]
sweetness perceived by panelists relative to 8.5% glucose [1]: significantly sweeter | Total (sample selected as sweeter by panelists) [2]: 21 | Total (sample selected as sweeter by panelists) (7% glucose + 8 ppm compound vs 9% glucose, 12 panelists × 2 reps): 14 | glucose concentration perceived by panelists as equally sweet (as sweet as): 9 % glucose

CCCNC(=O)C(C)(C)COc1cccc2c1C(N)=NS(=O)(=O)N2 [FEMA 4701, reference compound]
Total (sample selected as sweeter by panelists) (7% glucose + 8 ppm compound vs 8% glucose, 12 panelists × 2 reps): 13 | sweetness perceived by panelists relative to 8.5% glucose [1]: significantly less sweet | Total (sample selected as sweeter by panelists) [2]: 21 | glucose concentration perceived by panelists as equally sweet (as sweet as): 8 % glucose | glucose enhancement effects (overall statement): only showed marginal glucose enhancement effects

Cc1nc2cccc(OCC(C)(C)C(=O)NC(C)C)c2c(N)c1C(=O)O [FEMA 4774, reference compound]
sweetness perceived by panelists relative to 7% glucose (7% glucose + 8 ppm compound vs 7% glucose): only being directionally sweeter | Total (sample selected as sweeter by panelists) (7% glucose + 8 ppm compound vs 7% glucose, 12 panelists × 2 reps): 17 | glucose enhancement effects (overall statement): did not show significant glucose enhancement effects
